From ChEMBL document CHEMBL1201862, “PubChem BioAssay data set” (2004)
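Grown in 96-well plates, cells were treated for 48 hours with each compound at five concentrations. Insufficient inhibition: endpoint recorded as highest concentration tested. GI50: concentration for 50% inhibition of growth.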 Calls of active or inactive are those of the source. Rule as the data show it: active = GI50 up to about 1.1 µM and inactive = higher.

Experiments:
Assay in all cases: NCI tumour cell line growth inhibition, 48 h
[1] = test system: DLD-1
[2] = test system: DMS-273
[3] = test system: KM-20L2
[4] = test system: LXFL 529
[5] = test system: M19-MEL
[6] = test system: RXF 631
[7] = test system: XF498
[8] = test system: HOP-18

Measured: GI50

Nc1cccc2c1C(=O)c1cccc(N)c1C2=O
inactive: [1] > 100 µM | [2] > 100 µM | [3] > 100 µM | [4] > 100 µM | [5] > 100 µM | [6] > 100 µM | [7] 19.4 µM

[O-][S+]1Nc2c(Cl)cc(Cl)c3c(Cl)cc(Cl)c(c23)N1
inactive: [1] 28.6 µM | [2] 39.4 µM | [8] 34.1 µM | [3] 46.5 µM | [4] 40.3 µM | [5] 32.4 µM | [6] 31.8 µM

CCCCCCCCCCCC(=O)c1c(O)cccc1O
inactive: [1] 17.8 µM | [2] 18.9 µM | [8] 16.2 µM | [3] 21.7 µM | [4] 18.5 µM | [5] 18.8 µM | [6] 18.7 µM | [7] 18.3 µM

Cc1nc(-c2nc(C)c(C(=O)/C=C/c3ccc(N(C)C)cc3)s2)sc1C(=O)/C=C/c1ccc(N(C)C)cc1
inactive: [1] 29.5 µM | [2] 39.1 µM | [3] > 100 µM | [4] 34.8 µM | [5] 51.1 µM | [6] > 100 µM | [7] 23.4 µM

O=C1C=CC(=O)c2nc3c(cc21)CCC3
inactive: [1] 18.7 µM | [2] 20.3 µM | [8] 14.5 µM | [4] 15.5 µM | [5] 17.2 µM | [6] > 100 µM | [7] 18.6 µM

CN(C)c1ccc(C(C=C2c3ccccc3Sc3ccccc32)=C(C#N)C#N)cc1
inactive: [1] > 100 µM | [2] 6.81 µM | [8] > 100 µM | [3] 89.1 µM | [4] 86.7 µM | [5] > 100 µM | [6] > 100 µM | [7] 58.7 µM

CCOC(=O)C1=C(Nc2cccc3ccccc23)OCC1=O
inactive: [1] > 100 µM | [2] > 100 µM | [3] > 100 µM | [4] > 100 µM | [6] > 100 µM | [7] > 100 µM

c1ccc2c(c1)CCc1c(-c3n[nH]c4c3CCc3ccccc3-4)n[nH]c1-2
inactive: [1] > 100 µM | [2] > 100 µM | [8] > 100 µM | [3] > 100 µM | [4] > 100 µM | [5] > 100 µM | [6] > 100 µM | [7] > 100 µM
